# Reference: ChEMBL document CHEMBL4610081, “Anti-inflammatory Metabolites from Chaetomium nigricolor” (J Nat Prod, 2020)
# Activity calls are given as the source filed them. No cut-off for these calls is given here.
# Tested on: RAW264.7
# Assay: Antiinflammatory activity against mouse RAW264.7 cells assessed as inhibition of LPS-induced NO production preincubated for 3 hrs followed by LPS-stimulation and measured after 24 hrs by Griess reagent based assay
# Type: functional, cell-based
structure (smiles),measurement,value
O=c1ccoc(Cc2ccccc2)c1,Activity,inactive
